Numbers after ± are expanded uncertainties.
Experiment: xn = mol fraction of the nth substance listed
Details: 298.15 K, 101.3 kPa, Liquid, Vibrating tube method

Row | mass density (x2 = 0) [kg/m3] | mass density (x2 = 0.0503) [kg/m3] | mass density (x2 = 0.0991) [kg/m3] | mass density (x2 = 0.2021) [kg/m3] | mass density (x2 = 0.3118) [kg/m3] | mass density (x2 = 0.3926) [kg/m3] | mass density (x2 = 0.5039) [kg/m3] | mass density (x2 = 0.666) [kg/m3] | mass density (x2 = 0.7062) [kg/m3] | mass density (x2 = 0.8061) [kg/m3] | mass density (x2 = 0.9061) [kg/m3] | mass density (x2 = 0.9539) [kg/m3] | mass density (x1 = 1) [kg/m3] | Structure (SMILES)
1 | 773.88 ± 0.13 | 766.95 ± 0.14 | 760.53 ± 0.14 | 748.16 ± 0.15 | 735.69 ± 0.15 | 726.61 ± 0.15 | 717.21 ± 0.16 | 703.79 ± 0.17 | 700.61 ± 0.17 | 692.71 ± 0.17 | 685.62 ± 0.18 | 682.6 ± 0.18 | – | C1CCCCC1 [cyclohexane] + CCCCCCC
2 | – | – | – | – | – | – | – | – | – | – | – | – | 679.57 ± 0.18 | CCCCCCC [heptane] + C1CCCCC1

Source: the NIST ThermoML archive (doi:10.1016/j.fluid.2011.11.016)
